Results taken from patent US9546175B2, “Organic compounds” (Intra-Cellular Therapies, Inc., priority 2014, dated 2017).

Experiment: Pharmacokinetic analysis in mice, plasma and brain levels by LC-MS/MS
Assay type: in vivo
Details: mouse, male C57BL/6 mice, 10 mg/kg oral (PO), 0.25-2 h, read-out: B/P ratio (Brain AUC(0-2h)/Plasma AUC(0-2h))
Procedure: Animals: Male, C57BL/6 mice (Jackson Labs, 25-30 g in body weight) are provided by Jackson Laboratories. Up to five mice are housed per cage and are maintained under a 12 hour light/dark cycle with access to food and water ad libitum. All procedures for the handling and use of animals follow the guidelines of the Institutional Animal Care and Use Committee (IACUC) of Columbia University, in accordance with NIH guidelines. Eight week-old mice (N=3/dose level or treatment group) are used in the experiments.
Experimental Treatment: Compounds: Selected Compounds of the Invention are evaluated in the present study. […]
Compound Preparation: Powdered stocks of the test compound(s) are measured and dissolved in 3% 1N HCl, 5% Labrasol and 92% of 5% TPGS in 0.05M Citrate buffer (CB, pH 4.0). […]
Treatment of Animals: Mice (N=3 mice/dose/time point) receive a 10 mg/kg oral (PO) dose of the test compound(s) at time 0. […] Plasma and brain tissue samples are processed and analyzed by the analytical group using LC-MS/MS methods, as described below. […]
Each tube is vortexed, then centrifuged for 20 min at 15000 rpm using a Tomy benchtop centrifuge at 4° C., Standard is an internal standard used for LC-MS/MS quantitation. […]
Each compound is detected and quantified using Multiple Reaction Monitoring (MRM) of positive electrospray mode with a Waters QuattroMicro™ mass spectrometry system. […]

| Structure (SMILES) | Kp |
| --- | --- |
| CC(C)Cn1c(=O)n(C)c(=O)c2c(Nc3ccccc3)n(Cc3ccc(S(N)(=O)=O)cc3)nc21 [Example 1, 4-((7-Isobutyl-5-methyl-4,6-dioxo-3-(phenylamino)-4,5,6,7-tetrahydropyrazolo[3,4-d]pyrimidin-2-yl)methyl)benzenesulfonamide] | ≤ 0.05 |
| CC(C)Cn1c(=O)n(C)c(=O)c2c(Nc3ccccc3)n(Cc3ccc(C(=O)O)cc3)nc21 [Example 2, 4-((7-isobutyl-5-methyl-4,6-dioxo-3-(phenylamino)-4,5,6,7-tetrahydropyrazolo[3,4-d]pyrimidin-2-yl)methyl)benzoic acid] | ≤ 0.05 |
